Results: patent publication US7642277B2, “Non-nucleoside reverse transcriptase inhibitors” (Boehringer Ingelheim International GmbH, priority 2002, dated 2010)
Read-outs that look alike come from different tables or passages of the source.

Columns and labels:
[1] = molecular target: T1, HIV-1 RT enzyme (wild type) (Human immunodeficiency virus type 1 group M subtype B, UniProt P04585); assay: Reverse transcriptase (RT) enzymatic assay (IC50), PicoGreen fluorescence, wild type; assay type: biochemical
T1 construct: The reverse transcriptase (RT) enzyme assay has been adapted to a 96-well microtiter plate format
Outline: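 Enzyme at ≈10 nM in 50 mM Tris/HCl pH 7.8 with 60 mM NaCl, 2 mM MgCl2, 6 mM DTT, 2 mM GSH, 0.02% Chaps; 15 min preincubation with compound at room temperature, then substrate added and run 50 min at 37 °C. EDTA quench; product DNA read by PicoGreen fluorescence.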

[2] = molecular target: T2, HIV-1 RT resistant mutant K103N/Y181C (Human immunodeficiency virus type 1 group M subtype B, UniProt P04585, K690N/Y768C); assay: Reverse transcriptase (RT) enzymatic assay (IC50), PicoGreen fluorescence, resistant mutant; assay type: biochemical
T2 construct: The reverse transcriptase (RT) enzyme assay has been adapted to a 96-well microtiter plate format

HIV-1 (wild type) = assay: P24 cellular assay (EC50), data identified with * in Table 9, wild type; assay type: cell-based
Source text: (§1) P24 Cellular Assay (EC50) (Data Identified with * in Table 9).
(§2) The p24 assay is as described in WO 01/96338, the contents of which are herein incorporated by reference.
(§3) The results are listed in Table 9 as IC50(nM) and EC50 (nM).
(§4) Table legend: A=>100; B=100-50; C=<50; NT=not tested

[3] = tested on: HIV-1 resistant mutant K103N/Y181C; assay: P24 cellular assay (EC50), data identified with * in Table 9, resistant mutant; assay type: cell-based; details: Human immunodeficiency virus 1, read-out: EC50 K103N/Y181C
Source text: as §1, §2, §3, §4

[4] = tested on: HIV-1 (wild type) in C8166 LTRluc cells; assay: C8166 HIV-1 luciferase assay (EC50), wild type; assay type: cell-based; details: Human immunodeficiency virus 1, C8166 HIV-1 luciferase assay (no *)
Outline: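 C8166 cells carrying an HIV-1 LTR-driven luciferase reporter, infected at moi 0.005 for 1.5 h, then cultured 3 days at 37 °C with 11-point 2.5-fold inhibitor dilutions (≤0.1% DMSO) in triplicate, 25,000 cells/well. Luminescence gives % inhibition; EC50, slope and Imax from non-linear regression.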

[5] = tested on: HIV-1 resistant mutant K103N/Y181C in C8166 LTRluc cells; assay: C8166 HIV-1 luciferase assay (EC50), resistant mutant; assay type: cell-based; details: Human immunodeficiency virus 1, C8166, read-out: EC50 K103N/Y181C
[6] = RT enzymatic assay, wild type, read-out: IC50 WT

SMILES | IC50 [1] | IC50 [2] | EC50 (HIV-1 (wild type); Human immunodeficiency virus 1) | EC50 [3] | IC50 [1, 6] | EC50 (HIV-1 (wild type)) | EC50 [4] | EC50 [5]
O=C(CSc1nnnn1-c1ccccc1Cl)Nc1ccccc1[N+](=O)[O-] [Entry 114] | < 0.05 µM | > 0.1 µM | < 0.05 µM | > 0.1 µM | – | – | – | –
O=C(CSc1nnnn1-c1cccc2c1CCCC2)Nc1ccccc1[N+](=O)[O-] [Entry 104] | < 0.05 µM | > 0.1 µM | < 0.05 µM | > 0.1 µM | – | – | – | –
O=C(CSc1nnnn1-c1ccccc1F)Nc1ccccc1[N+](=O)[O-] [Entry 113] | < 0.05 µM | > 0.1 µM | < 0.05 µM | – | – | – | – | –
Cc1cc(C)c(-n2nnnc2SCC(=O)Nc2ccccc2[N+](=O)[O-])c(C)c1 [Entry 141] | > 0.1 µM | > 0.1 µM | < 0.05 µM | < 0.05 µM | – | – | – | –
O=C(CSc1nnnn1-c1cccc2ccccc12)Nc1ccc(Cl)cc1Cl [Entry 234] | 0.05 to 0.1 µM | – | 0.05 to 0.1 µM | > 0.1 µM | – | – | – | –
O=C(CSc1nnnn1-c1cccc2ccccc12)Nc1cccc(F)c1F [Entry 230] | 0.05 to 0.1 µM | – | 0.05 to 0.1 µM | > 0.1 µM | – | – | – | –
Cc1ccc(-n2nnnc2SCC(=O)Nc2ccccc2[N+](=O)[O-])c(Br)c1 [Entry 130] | < 0.05 µM | > 0.1 µM | < 0.05 µM | – | – | – | – | –
COc1ccccc1-n1nnnc1SCC(=O)Nc1ccccc1[N+](=O)[O-] [Entry 115] | 0.05 to 0.1 µM | > 0.1 µM | < 0.05 µM | > 0.1 µM | – | – | – | –
N#Cc1ccc(NC(=O)CSc2nnnn2-c2cccc3ccccc23)c(Cl)c1 [Entry 239] | 0.05 to 0.1 µM | > 0.1 µM | < 0.05 µM | > 0.1 µM | – | – | – | –
O=C(COc1ccccc1-c1cccc2ccccc12)Nc1ccccc1[N+](=O)[O-] [Entry 409] | – | – | > 0.1 µM | – | > 0.1 µM | – | – | –
CC(Sc1nnnn1-c1cccc2ccccc12)C(=O)Nc1ccccc1[N+](=O)[O-] (stereo not drawn) [Entry 301] | 0.05 to 0.1 µM | > 0.1 µM | < 0.05 µM | > 0.1 µM | – | – | – | –
S=C(CSc1nnnn1-c1cccc2ccccc12)Nc1ccccc1Cl [Entry 308] | > 0.1 µM | – | 0.05 to 0.1 µM | – | – | – | – | –
Cc1cccc(Cl)c1-n1nnnc1SCC(=O)Nc1ccccc1[N+](=O)[O-] [Entry 139] | < 0.05 µM | > 0.1 µM | < 0.05 µM | – | – | – | – | –
Cc1cccc(-n2nnnc2SCC(=O)Nc2ccccc2[N+](=O)[O-])c1 [Entry 118] | 0.05 to 0.1 µM | > 0.1 µM | < 0.05 µM | > 0.1 µM | – | – | – | –
O=C(CSc1nnnn1-c1ccc2c(c1)CCC2)Nc1ccccc1[N+](=O)[O-] [Entry 105] | < 0.05 µM | > 0.1 µM | < 0.05 µM | > 0.1 µM | – | – | – | –
OC(CCSc1nnnn1-c1cccc2ccccc12)c1ccccc1Cl (stereo not drawn) [Entry 317, 5-{{3-(2-Chlorophenyl)-3-hydroxypropyl}thio}-1-(1-naphthalenyl)-1H-tetrazole] | 0.05 to 0.1 µM | > 0.1 µM | < 0.05 µM | – | – | – | – | –
CN(C)c1ccc(-n2nnnc2SCC(=O)Nc2ccccc2[N+](=O)[O-])c2ccccc12 [Entry 102] | < 0.05 µM | > 0.1 µM | < 0.05 µM | – | – | – | – | –
O=C(CSc1nnnn1-c1cccc2ccccc12)Nc1ccccc1I [Entry 210] | 0.05 to 0.1 µM | – | < 0.05 µM | > 0.1 µM | – | – | – | –
O=C(CSc1nnnn1-c1cccc2ccccc12)Nc1ccccc1[N+](=O)[O-] [Entry 101, 2-{{1-(1-Naphthalenyl)-1H-tetrazol-5-yl}thio}-N-(2-nitrophenyl)acetamide] | – | – | < 0.05 µM | > 0.1 µM | – | – | – | –

SMILES | IC50 [1] | IC50 [2] | EC50 (HIV-1 (wild type); Human immunodeficiency virus 1) | EC50 [3] | IC50 [1, 6] | EC50 (HIV-1 (wild type)) | EC50 [4] | EC50 [5]
OC(CNc1ccccc1Cl)CSc1nnnn1-c1cccc2ccccc12 (stereo not drawn) [Entry 330, 5-{{3-{(2-Chlorophenyl)amino}-2-hydroxypropyl}thio}-1-(1-naphthalenyl)-1H-tetrazole] | 0.05 to 0.1 µM | > 0.1 µM | < 0.05 µM | – | – | – | – | –
Cc1cccc(-n2nnnc2SCC(=O)Nc2ccccc2[N+](=O)[O-])c1C [Entry 122] | < 0.05 µM | > 0.1 µM | < 0.05 µM | > 0.1 µM | – | – | – | –
COc1ccc(-n2nnnc2SCC(=O)Nc2ccccc2[N+](=O)[O-])c(C)c1 [Entry 127] | < 0.05 µM | > 0.1 µM | < 0.05 µM | > 0.1 µM | – | – | – | –
CC(C)Oc1cc(-n2nnnc2SCC(=O)Nc2ccccc2[N+](=O)[O-])c(Cl)cc1Cl [Entry 134] | < 0.05 µM | > 0.1 µM | < 0.05 µM | > 0.1 µM | – | – | – | –
O=C(CSc1nc(-c2cccc3ccccc23)c[nH]1)Nc1ccccc1[N+](=O)[O-] [Entry 401, 2-{{4-(1-Naphthalenyl)-1H-imidazol-2-yl}thio}-N-(2-nitrophenyl)acetamide] | – | – | – | – | – | < 0.05 µM | – | –
O=C(COc1nnnn1-c1cccc2ccccc12)Nc1ccccc1[N+](=O)[O-] [Entry 302] | – | – | 0.05 to 0.1 µM | – | – | – | – | –
COc1ccc(Cl)cc1-n1nnnc1SCC(=O)Nc1ccccc1[N+](=O)[O-] [Entry 136] | 0.05 to 0.1 µM | > 0.1 µM | < 0.05 µM | > 0.1 µM | – | – | – | –
O=C(CSc1nnnn1-c1cccc2ccccc12)Nc1ccc(C(=O)O)cc1Cl [Entry 236] | 0.05 to 0.1 µM | > 0.1 µM | > 0.1 µM | > 0.1 µM | – | – | – | –
COC(=O)c1ccc(NC(=O)CSc2nnnn2-c2cccc3ccccc23)c(Cl)c1 [Entry 235] | < 0.05 µM | > 0.1 µM | < 0.05 µM | – | – | – | – | –
O=C(CSc1nnnn1-c1ccccc1C(F)(F)F)Nc1ccccc1[N+](=O)[O-] [Entry 111] | 0.05 to 0.1 µM | > 0.1 µM | < 0.05 µM | > 0.1 µM | – | – | – | –
O=C(CSc1nncn1-c1cccc2ccccc12)Nc1ccccc1[N+](=O)[O-] [Entry 402, 2-{{4-(1-Naphthalenyl)-4H-1,2,4-triazol-3-yl}thio}-N-(2-nitrophenyl)acetamide] | – | > 0.1 µM | < 0.05 µM | > 0.1 µM | 0.05 to 0.1 µM | – | – | –
COC(=O)c1ccccc1-n1nnnc1SCC(=O)Nc1ccccc1[N+](=O)[O-] [Entry 117] | – | > 0.1 µM | – | > 0.1 µM | < 0.05 µM | – | – | –
OC(CSc1nnnn1-c1cccc2ccccc12)Cc1ccccc1Cl (stereo not drawn) [Entry 318, 5-{{3-(2-Chlorophenyl)-2-hydroxypropyl}thio}-1-(1-naphthalenyl)-1H-tetrazole] | 0.05 to 0.1 µM | > 0.1 µM | < 0.05 µM | – | – | – | – | –
O=C(CSc1nnnn1-c1cccc2ccccc12)Nc1ccccc1Br [Entry 209] | < 0.05 µM | – | > 0.1 µM | – | – | – | – | –
O=C(CSc1nnnn1-c1cccc(Cl)c1Cl)Nc1ccccc1[N+](=O)[O-] [Entry 123] | – | > 0.1 µM | – | 0.05 to 0.1 µM | < 0.05 µM | – | – | –
Cc1nnc(SCC(=O)Nc2ccccc2[N+](=O)[O-])n1-c1cccc2ccccc12 [Entry 403] | – | > 0.1 µM | – | – | < 0.05 µM | – | < 0.05 µM | > 0.1 µM
CSc1ccccc1-n1nnnc1SCC(=O)Nc1ccccc1[N+](=O)[O-] [Entry 116] | < 0.05 µM | > 0.1 µM | < 0.05 µM | – | – | – | – | –
Clc1ccccc1[C@@H]1C[C@H]1CSc1nnnn1-c1cccc2ccccc12 (relative stereo) [Entry 316, trans-5-{{{2-(2-Chlorophenyl)cyclopropyl}methyl}thio}-1-(1-naphthalenyl)-1H-tetrazole] | 0.05 to 0.1 µM | > 0.1 µM | < 0.05 µM | – | – | – | – | –
CCN(CC)c1ccc(-n2nnnc2SCC(=O)Nc2ccccc2Cl)c(Cl)c1 [Entry 705] | – | > 0.1 µM | – | – | < 0.05 µM | – | < 0.05 µM | > 0.1 µM
